Laboratory results: patent US5011851A, “Imidazole carboxylic acids and esters and inhibition of blood platelet aggregation therewith” (Bristol-Myers Squibb Co., priority 1990, dated 1991)
Converted amounts (≈) assume the structure as drawn. Where two headings read alike, the source gives them in different places.

System: ADP-induced aggregation of human platelets
Assay type: cell-based
Settings: human platelet rich plasma, vs ADP, read-out: Inhibition of Human Platelet Aggregation IC50 Vs ADP
Description: IN VITRO INHIBITION OF HUMAN PLATELET AGGREGATION
The human volunteer donor's arm is cleansed with 70% ethyl alcohol. A sterile 20 ml syringe and needle are used to withdraw 20 ml of blood. The blood is immediately added to a test tube containing 3.8% sodium citrate to prevent clotting (1 part citrate to 9 parts blood).
Platelet rich plasma (PRP) was separated by centrifugation for 10 minutes at 1000 rpm (140 xg) from citrated (3.8%) human blood. All glassware used for preparation of PRP is silicon treated. ADP in final concentration of 0.5 meg/mL or 0.05 mL of a collagen suspension prepared according to the method described by Evans, G., et al., J. Exp. Med., 1968, 128, 877-894 was used to induce aggregation. The various compounds tested were dissolved in dimethylsulfoxide (DMSO) so that 5 mol added to the platelet rich plasma would yield the desired test concentration. Vehicle control trials were done and compared with aggregation induced in platelet rich plasma containing various concentrations of the test compounds. Dose response curves were obtained and Inhibitor Concentration (IC50) values calculated.

SMILES	IC50 (Formula VIII compounds) [µg/mL]	IC50 (Formula II compounds) [µg/mL]
COC(=O)COc1cccc(CSc2nc(-c3ccccc3)c(-c3ccccc3)[nH]2)c1 [Example 4, Methyl [3-[[(4,5-diphenyl-1H-imidazol-2-yl)thio]methyl]phenoxy]acetate]	0.42 (≈ 0.976 µM)	–
COC(=O)COc1cccc(CCc2nc(-c3ccccc3)c(-c3ccccc3)[nH]2)c1 [Example 1, Methyl [3-[2-(4,5-diphenyl-1H-imidazol-2-yl)ethyl]phenoxy]-acetate]	–	2.4 (≈ 5.82 µM)
O=C(O)COc1cccc(CSc2nc(-c3ccccc3)c(-c3ccccc3)[nH]2)c1 [Example 5, [3-[[(4,5-Diphenyl-1H-imidazol-2-yl)thio]methyl]phenoxy]acetic Acid]	0.41 (≈ 0.984 µM)	–
O=C(O)COc1cccc(CCc2nc(-c3ccccc3)c(-c3ccccc3)[nH]2)c1 [Example 2, [3-[2-(4,5-diphenyl-1H-imidazol-2-yl)ethyl]phenoxy]-acetic acid]	–	1.2 (≈ 3.01 µM)
